Measured values: patent USH1551H, “Topical composition and method for reducing hair loss from human scalp” (priority 1982, dated 1996)

Experiments:
[1] = system: MPB (male pattern baldness); assay: Clinical cases, male pattern baldness (MPB), topical application; type: in vivo, human; conditions: The patient; Resorcinol and other lotions for application
Text: The following preparations were used in the tests (1)-(22). MPB represents male pattern baldness.

[2] = Acute toxicity (LD50) of oxendolone, rat; conditions: in vivo
Text: (§1) The systemic acute toxicity of oxendolone is as follows:
(§2) Acute Toxicity (LD50 : mg/kg)

[3] = system: hair and scalp; assay: Toxicity test of the present hair grower (local application); type: in vivo, human; conditions: 0.2% ethanol solution
[4] = biological target: T1, testosterone-5α-reductase (Mesocricetus auratus, UniProt C7T2J7); assay: Inhibitory effect on the reductase activity (testosterone reduced to 5α-DHT, hamster sebaceous gland); type: biochemical; conditions: for inhibition at 100 µM: 10^-4 molar concentration; for inhibition at 100 µM / inhibition at 10 µM: read-out: Rate of inhibition (reductase activity); for inhibition at 10 µM: 10^-5 molar concentration
T1 construct: by using the sebaceous gland at the back of a hamster; from tissue; host or cells: sebaceous gland at the back of a hamster
T1 sequence (C7T2J7 1-255): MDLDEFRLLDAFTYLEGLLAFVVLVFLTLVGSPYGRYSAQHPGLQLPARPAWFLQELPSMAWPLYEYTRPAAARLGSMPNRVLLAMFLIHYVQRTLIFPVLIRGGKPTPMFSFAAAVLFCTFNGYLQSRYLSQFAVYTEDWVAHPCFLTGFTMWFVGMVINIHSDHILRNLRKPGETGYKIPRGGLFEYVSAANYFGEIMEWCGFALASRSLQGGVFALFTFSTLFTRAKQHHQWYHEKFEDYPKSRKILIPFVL
Experimental: Based on the method of Takayasu et al. (The Nishinihon Journal of Dermatology, 43, 1215-1217, 1981), the amount of testosterone reduced to 5α-DHT was measured by using the sebaceous gland at the back of a hamster. The concentrations of the samples used in the experiment were 10^-4 and 10^-5 molar concentrations, respectively. The rate of inhibition was calculated from the following equation using the resulting data.
Rate of inhibition (%)=(C-t/C) ×100
C: the amount of 5α-DHT formed in a control
t: the amount of 5α-DHT formed when the sample was added

[5] = Acute toxicity (LD50) of oxendolone, mouse; conditions: in vivo
Text: as §1, §2

[6] = system: uptake of testosterone into the cells; assay: Inhibition of uptake of testosterone into the cells; type: cell-based
[7] = system: head sebum / basal cells of hair; assay: Decrease of head sebum and mitosis of basal cells of hair; conditions: coupled with the defatting actions of ethanol
[8] = system: 5α-DHT receptor protein; assay: Inhibitory effect on binding of 5α-DHT with the receptor protein; conditions: for Rate of inhibition (binding of 5α-DHT with the receptor protein): 10^-6 molar concentration
Experimental: Based on the method of Takayasu et al. (Arch. Dermatol. Res., 264, 50-51, 1979), the amount of 5α-DHT bound with the receptor protein was measured. The concentration of the sample used in the experiment was 10^-6 molar concentration. The rate of inhibition was calculated from the following equation using the resulting data.
Rate of inhibition (%)=(C-t/C)×100
C: the amount of 5α-DHT bound with the receptor protein in a control
t: the amount of 5α-DHT bound with the receptor protein when the sample was added

[9] = Solubility of oxendolone

SMILES: Oc1cccc(O)c1 [Resorcinol]
- effect of previous treatment, case (9) [1]: no appreciable change

SMILES: CC[C@H]1C[C@H]2[C@@H]3CCC4=CC(=O)CC[C@@H]4[C@H]3CC[C@]2(C)[C@H]1O [Oxendolone, 16β-ethyl-17β-hydroxy-4-estren-3-one]
- LD50 ([2]; im, female, intramuscular): > 10000 mg/kg
- LD50 ([2]; im, male, intramuscular): > 10000 mg/kg
- LD50 ([2]; ip, female, intraperitoneal): 5880 mg/kg
- LD50 ([2]; ip, male, intraperitoneal): 6530 mg/kg
- local acute toxicity ([3]; 0.05 ml/cm^2, several times a day): No local acute toxicity was observed
- other systemic or local side effect ([3]; in the application schedule): No other systemic or local side effect was observed
- inhibition at 100 µM [4]: 43 ± 18%
- inhibition at 10 µM [4]: 28 ± 28%
- inhibitory effect on the reductase activity compared with 4-androsten-3-one-17β-carboxylic acid ([4]; comparison, Table 1): equivalent inhibitory effect on the reductase activity
- LD50 ([5]; im, female, intramuscular): > 10000 mg/kg
- LD50 ([5]; im, male, intramuscular): > 10000 mg/kg
- LD50 ([5]; ip, female, intraperitoneal): 2980 mg/kg
- LD50 ([5]; ip, male, intraperitoneal): 2930 mg/kg
- inhibition of uptake of testosterone into the cells [6]: inhibit uptake of testosterone into the cells
- decrease of head sebum and mitosis of basal cells of hair [7]: synergistically produce a decrease of head sebum and promote the mitosis of basal cells of hair
- Rate of inhibition (binding of 5α-DHT with the receptor protein) [8]: 53%
- inhibitory effect on the binding of 5α-DHT with the receptor protein compared with 4-androsten-3-one-17β-carboxylic acid ([8]; comparison, Table 2): greater
- solubility in ethanol ([9]; ethanol): soluble
- solubility in vegetable oils, squalane, alcohols, fatty acids, silicone oils, etc. ([9]; vegetable oils etc.): dissolved totally or partially
- solubility in water ([9]; water): practically insoluble

SMILES: C[C@]12CC[C@H]3[C@@H](CCC4=CC(=O)CC[C@@]43C)[C@@H]1CC[C@@H]2C(=O)O [4-androsten-3-one-17β-carboxylic acid]
- inhibition at 100 µM [4]: 54 ± 32%
- inhibition at 10 µM [4]: 31 ± 19%
- Rate of inhibition (binding of 5α-DHT with the receptor protein) [8]: 0%
